Laboratory results as given in US20240350481A1, “USE OF N-MYRISTOYL TRANSFERASE (NMT) INHIBITORS IN THE TREATMENT OF CANCER, AUTOIMMUNE DISORDERS, AND INFLAMMATORY DISORDERS” (PACYLEX PHARMACEUTICALS INC., priority 2020, published 2024).

Experiment: Toxicology in DOHH2 xenograft mice
Details: for Absolute Basophil cells / Absolute Eosinophil cells / Absolute Neutrophil cells / Absolute Lymphocyte cells / WBC / MPV / RBC / Hemoglobin / RDW % / MCH / MCHC / Hematocrit % / MCV / Platelets / Reticulocyte % / Absolute Monocyte cells / Aspartate Transaminase / Bilirubin / Creatine PhosphoKinase / Creatinine: DOHH2 xenograft; for Absolute Basophil cells / Absolute Eosinophil cells: normal [0-0.2]; for Absolute Neutrophil cells: normal [0.1-2.4]; for Absolute Lymphocyte cells: normal [0.9-9.3]; for WBC: normal [1.8-10.7]; for MPV: normal [5-20]; for RBC: normal [6.36-9.42]; for Hemoglobin: normal [11-15.1]; for RDW %: normal [12.4-27]; for MCH: normal [14.1-19.3]; for MCHC: normal [30.2-34.2]; for Hematocrit %: normal [35.1-45.4]; for MCV: normal [45.4-60.3]; for Platelets: normal [592-2972]; for Absolute Monocyte cells: normal [0-0.4]; for Aspartate Transaminase / Bilirubin / Creatine PhosphoKinase / Creatinine: mean ± SEM, n = 3
[1] = c2, head missing (per Table 4: PCLX-001 10 mg/kg/day)
[2] = c3, head missing (per Table 4: PCLX-001 20 mg/kg/day)
[3] = c4, head missing (per Table 4: PCLX-001 50 mg/kg/day Interm.)
[4] = c5, head missing (per Table 4: PCLX-001 50 mg/kg/day)

Protocol: Mice were observed daily for clinical signs of toxicity and effects on body weight. After the last dose, three mice/group were euthanized and necropsied. At euthanasia, blood samples were taken for hematology analyses and to measure AST and CK activities and bilirubin and creatinine concentrations. At necropsy, samples of samples of femur, both kidneys, liver, small intestine, and injection site were taken and fixed.
The dose volume was 10 mL/kg. At the end of the two-to three-week dosing period, mice were euthanized and three/group were necropsied. Mice that died or were euthanized early for humane reasons also were necropsied. In life, mice were monitored regularly and weighed daily, and tumors were measured with digital Vernier calipers (Mitutoyo) every other day. Tumor volume was calculated as length (mm)×width (mm)2/2; length and width were the longest and shortest diameters, respectively. At euthanasia, at the end of the dosing period blood samples were taken for hematology analyses and clinical chemistry analyses that included AST and CK activities and bilirubin and creatinine concentrations (plus ALT activity and BUN concentration in the Jackson Laboratory study). At necropsy, samples of femur, both kidneys, liver, small intestine, and injection site were collected and fixed. These were subsequently processed and examined by light microscopy for histopathologic findings. Also at necropsy, the tumors were removed and divided in two. One piece was fixed in 10% neutral buffered formalin for 24 h at room temperature and embedded in paraffin; the other was snap frozen for RNA and protein analysis. Tumor growth inhibition (TGI) for all xenograft experiments was calculated following the formula:

**Q.** For `Cc1c(N[S+](=O)([O-])c2c(Cl)cc(-c3ccnc(N4CCNCC4)c3)cc2Cl)c(CC(C)C)nn1C` [PCLX-001], which “Absolute Basophil cells” value (PCLX-001 20 mg/kg/day) is on record?
**A.** Its value is 0.01 ± 0 K/ul.

**Q.** And the “Absolute Eosinophil cells” value (PCLX-001 20 mg/kg/day)?
**A.** The value was 0.02 ± 0.01 K/ul.

**Q.** And the “Absolute Neutrophil cells” value (PCLX-001 20 mg/kg/day)?
**A.** The value was 3.94 ± 0.94 K/ul.

**Q.** What about the “Absolute Lymphocyte cells” value (PCLX-001 20 mg/kg/day) of the same compound?
**A.** The value was 0.84 ± ? .15 K/ul.

**Q.** And the WBC (PCLX-001 20 mg/kg/day)?
**A.** Its WBC is 5.41 ± 1.05 K/ul.

**Q.** What about the MPV (PCLX-001 20 mg/kg/day) of the same compound?
**A.** The MPV was 7.63 ± 0.23 fL.

**Q.** And the RBC (PCLX-001 20 mg/kg/day)?
**A.** The RBC was 9.03 ± 0.32 M/ul.

**Q.** What about the Hemoglobin (PCLX-001 20 mg/kg/day) of the same compound?
**A.** The Hemoglobin was 13.97 ± 0.44 g/dL.

**Q.** What about the RDW % (PCLX-001 20 mg/kg/day) of the same compound?
**A.** The RDW % was 25.13 ± 0.65%.

**Q.** And the MCH (PCLX-001 20 mg/kg/day)?
**A.** Its MCH is 15.43 ± 0.3 pg.

**Q.** What about the MCHC (PCLX-001 20 mg/kg/day) of the same compound?
**A.** Its MCHC is 33.03 ± 0.22 g/dL.

**Q.** And the Hematocrit % (PCLX-001 20 mg/kg/day)?
**A.** Its Hematocrit % is 42.33 ± 1.48%.

**Q.** What about the MCV (PCLX-001 20 mg/kg/day) of the same compound?
**A.** The MCV was 46.9 ± 0.65 fL.

**Q.** What about the Platelets (PCLX-001 20 mg/kg/day) of the same compound?
**A.** Its Platelets is 1234.7 ± 38.49 K/uL.

**Q.** And the Reticulocyte % (PCLX-001 50 mg/kg/day)?
**A.** Its Reticulocyte % is 6.7 ± 0.3%.

**Q.** What about the Reticulocyte % (PCLX-001 50 mg/kg/day Interm.) of the same compound?
**A.** The Reticulocyte % was 13.28 ± 6.74%.

**Q.** What about the “Absolute Basophil cells” value (PCLX-001 50 mg/kg/day Interm.) of the same compound?
**A.** Its value is 0 ± 0 K/ul.

**Q.** What about the “Absolute Eosinophil cells” value (PCLX-001 50 mg/kg/day Interm.) of the same compound?
**A.** The value was 0.05 ± 0.03 K/ul.

**Q.** And the “Absolute Monocyte cells” value (PCLX-001 50 mg/kg/day Interm.)?
**A.** Its value is 0.91 ± 0.14 K/ul.

**Q.** What about the “Absolute Lymphocyte cells” value (PCLX-001 50 mg/kg/day Interm.) of the same compound?
**A.** The value was 1.51 ± 0.47 K/ul.

**Q.** And the WBC (PCLX-001 50 mg/kg/day Interm.)?
**A.** The WBC was 5.94 ± 1.19 K/ul.

**Q.** What about the MPV (PCLX-001 50 mg/kg/day Interm.) of the same compound?
**A.** The MPV was 7.17 ± 0.09 fL.

**Q.** And the RBC (PCLX-001 50 mg/kg/day Interm.)?
**A.** The RBC was 8.07 ± 0.12 M/ul.

**Q.** What about the Hemoglobin (PCLX-001 50 mg/kg/day Interm.) of the same compound?
**A.** The Hemoglobin was 12.6 ± 0.15 g/dL.

**Q.** And the RDW % (PCLX-001 50 mg/kg/day Interm.)?
**A.** The RDW % was 27.2 ± 1.82%.

**Q.** And the MCH (PCLX-001 50 mg/kg/day Interm.)?
**A.** Its MCH is 15.63 ± 0.12 pg.

**Q.** What about the MCHC (PCLX-001 50 mg/kg/day Interm.) of the same compound?
**A.** Its MCHC is 31.90 ± 1.01 g/dL.

**Q.** And the Hematocrit % (PCLX-001 50 mg/kg/day Interm.)?
**A.** The Hematocrit % was 39.53 ± 0.84%.

**Q.** And the MCV (PCLX-001 50 mg/kg/day Interm.)?
**A.** Its MCV is 49.07 ± 1.72 fL.

**Q.** And the Platelets (PCLX-001 50 mg/kg/day Interm.)?
**A.** Its Platelets is 1673.7 ± 309.81 K/uL.

**Q.** And the “Absolute Basophil cells” value (PCLX-001 50 mg/kg/day)?
**A.** Its value is 0 ± 0 K/ul.

**Q.** What about the “Absolute Eosinophil cells” value (PCLX-001 50 mg/kg/day) of the same compound?
**A.** Its value is 0.01 ± 0.01 K/ul.

**Q.** And the “Absolute Monocyte cells” value (PCLX-001 50 mg/kg/day)?
**A.** Its value is 0.19 ± 0.06 K/ul.

**Q.** And the “Absolute Neutrophil cells” value (PCLX-001 50 mg/kg/day)?
**A.** The value was 1.45 ± 0.22 K/ul.

**Q.** What about the “Absolute Lymphocyte cells” value (PCLX-001 50 mg/kg/day) of the same compound?
**A.** The value was 0.23 ± 0.06 K/ul.

**Q.** What about the WBC (PCLX-001 50 mg/kg/day) of the same compound?
**A.** Its WBC is 1.89 ± 0.31 K/ul.

**Q.** What about the MPV (PCLX-001 50 mg/kg/day) of the same compound?
**A.** The MPV was 7 ± 0.3 fL.

**Q.** What about the RBC (PCLX-001 50 mg/kg/day) of the same compound?
**A.** Its RBC is 9.3 ± 0.17 M/ul.

**Q.** And the Hemoglobin (PCLX-001 50 mg/kg/day)?
**A.** The Hemoglobin was 14.77 ± 0.23 g/dL.

**Q.** What about the RDW % (PCLX-001 50 mg/kg/day) of the same compound?
**A.** Its RDW % is 25.8 ± 0.3%.

**Q.** And the MCH (PCLX-001 50 mg/kg/day)?
**A.** The MCH was 15.9 ± 0.1 pg.

**Q.** And the MCHC (PCLX-001 50 mg/kg/day)?
**A.** The MCHC was 34.1 ± 0.1 g/dL.

**Q.** What about the Hematocrit % (PCLX-001 50 mg/kg/day) of the same compound?
**A.** Its Hematocrit % is 43.3 ± 0.7%.

**Q.** What about the MCV (PCLX-001 50 mg/kg/day) of the same compound?
**A.** Its MCV is 46.6 ± 0.2 fL.

**Q.** What about the Platelets (PCLX-001 50 mg/kg/day) of the same compound?
**A.** Its Platelets is 900.7 ± 60.8 K/uL.

**Q.** What about the “Aspartate Transaminase” value [1] of the same compound?
**A.** Its value is 104.33 ± 27.34 U/L.

**Q.** What about the Bilirubin [1] of the same compound?
**A.** Its Bilirubin is 0.1 ± 0 mg/dL.

**Q.** What about the “Creatine PhosphoKinase” value [1] of the same compound?
**A.** Its value is 81.7 ± 25.1 U/L.

**Q.** And the Creatinine [1]?
**A.** Its Creatinine is 0.3 ± 0.067 mg/dL.

**Q.** And the “Aspartate Transaminase” value [2]?
**A.** Its value is 132.67 ± 55.29 U/L.

**Q.** What about the Bilirubin [2] of the same compound?
**A.** The Bilirubin was 0.1 ± 0 mg/dL.

**Q.** And the “Creatine PhosphoKinase” value [2]?
**A.** The value was 54 ± 14.7 U/L.

**Q.** And the Creatinine [2]?
**A.** The Creatinine was 0.3 ± 0 mg/dL.

**Q.** What about the “Aspartate Transaminase” value [3] of the same compound?
**A.** The value was 125.67 ± 68.18 U/L.

**Q.** And the Bilirubin [3]?
**A.** Its Bilirubin is 0.1 ± 0 mg/dL.

**Q.** And the “Creatine PhosphoKinase” value [3]?
**A.** Its value is 92.3 ± 29.5 U/L.

**Q.** And the Creatinine [3]?
**A.** Its Creatinine is 0.3 ± 0 mg/dL.

**Q.** And the “Aspartate Transaminase” value [4]?
**A.** The value was 279.7 ± 34.17 U/L.

**Q.** What about the Bilirubin [4] of the same compound?
**A.** Its Bilirubin is 0.1 ± 0 mg/dL.

**Q.** What about the “Creatine PhosphoKinase” value [4] of the same compound?
**A.** Its value is 266.67 ± 69.9 U/L.

**Q.** And the Creatinine [4]?
**A.** The Creatinine was 0.2 ± 0 mg/dL.

**Q.** What about the “Noteworthy findings after last dose” value (Group 2, Low-dose, 10 mg/kg) of the same compound?
**A.** The value was “None”.

**Q.** And the “Noteworthy findings after last dose” value (Group 4, Mid-dose, 20 mg/kg)?
**A.** The value was “None”.

**Q.** And the mortality (any dose)?
**A.** Its mortality is “does not increase mortality”.
